Measurements as given in US8614203B2, “Methods for the treatment of a central nervous system injury via a tapered administration protocol” (Emory University, priority 2005, dated 2013).

Columns and labels:
[1] = test system: medial frontal cortex (MFC) injury or sham; test: Example 4: Digiscan locomotor activity boxes (center time); type: in vivo, Sprague-Dawley rats
Source text: (§1) 60 male Sprague-Dawley rats weighing 290-310 g at the time of injury were used in this experiment. Food and water were provided ad libidum before and after surgery. Animals were handled and weighed daily from their arrival, seven days pre-surgery, to brain extraction three weeks post-surgery. Animals were handled in squads of 12, with n=10 per experimental condition. All animal procedures were approved by the Emory University Animal Care and Use Committee, Protocol #131-2002.
(§2) Isofluorane anesthesia was induced for four minutes and 45 seconds at 5% and maintained at 2.5%. Normal body temperature was maintained with a surgical heating pad placed beneath the sterile dressings. The scalp incision area was shaved and sterilized with iodine and isopropanol. A midline incision was made along the scalp and the fascia cleared to expose the surface of the skull. Medial, lateral, and dorsal stereotaxic coordinates were determined at bregma, and a 5-7 mm diameter bilateral craniotomy was performed mid-sagitally, 3 mm anterior to bregma. […] Sutures were used to close the incision after bleeding ceased. Animals were placed in individual heated, clean recovery cages until they awakened, and were returned to clean individual home cages with accessible moistened food pellets. Sham animals were anesthetized, and an incision was made at the top of the head. The fascia was cleared to expose bregma, then the incision was sutured closed. Sham surgeries were matched to lesion surgeries for all experimental conditions.
Sham (S) and lesion (L) animals were randomly assigned to one of three treatment groups: vehicle (VS, VL), acute withdrawal (AWS, AWL), and tapered withdrawal (TWS, TWL). […] Tapering was induced as halved dosages over the last two days of treatment. Dilutions for TW treatments were made with HBC stock. All injections were administered intraperitoneally at one hour post-injury, and subcutaneously at six hours post-injury and every 24 hours through the end of the treatment cycle. Five sets of 12 animals each were used, for a total n=10 for each experimental group over the entire experiment. Of these animals, all were used to acquire behavioral data, four samples were used for protein analysis, and six samples were used for histological analysis for each test condition.
Random order, blinded testing occurred under red light in a quiet environment one day before injury, and one and seven days post-withdrawal. Up to four animals were tested using the Digiscan Activity Monitoring System (AccuScan Instruments, inc. Columbus, Ohio) in each trial, with a total of three trials per test day. Rats were placed in the furthest left corner of the Digiscan Activity Box. At that time, the toggle switch was flipped to ‘on’. At exactly five minutes the computer ceased testing, assuring that all tests were the same length regardless of start time. Files were saved according to date and trial number, and the number of fecal boli recorded. Activity boxes were cleaned with 70% ethanol and dried between trials. Center time was defined by the computer as the amount of time the animal spent exploring the activity box away from the corners.
All results were expressed as the mean plus or minus the standard error of the mean. Statistical significance was set at p<0.05 for two-tailed tests, and data were analyzed using one-way analysis of variance (ANOVA) followed by LSD post hoc tests. […]

HSP70 = test: Example 4: Western blotting densitometry, HSP70; type: in vivo, Sprague-Dawley rats
Source text: as §1, §2
(§3) Sham (S) and lesion (L) animals were randomly assigned to one of three treatment groups: vehicle (VS, VL), acute withdrawal (AWS, AWL), and tapered withdrawal (TWS, TWL). […] Tapering was induced as halved dosages over the last two days of treatment. Dilutions for TW treatments were made with HBC stock. […]
(§4) Brains for protein analysis were sectioned into the immediate area of the lesion and snap frozen in 2-methyl-butane chilled on dry ice. […] The amount of brain homogenate needed to standardize samples to 2 μg/μL for Western blotting was calculated from the results of these assays. […]

BDNF = test: Example 4: Western blotting densitometry, BDNF; type: in vivo, Sprague-Dawley rats
Source text: as §1, §2, §3, §4

contusion injury = details: following a contusion injury (Roof et al. 1994); cited from earlier work

CC(=O)[C@H]1CC[C@H]2[C@@H]3CCC4=CC(=O)CC[C@]4(C)[C@H]3CC[C@]12C [progesterone, pregn-4-ene-3,20-dione]
center time ([1]; acute withdrawal, lesion (AWL), one and seven days post-withdrawal): increased center time compared to VL animals
center time ([1]; acute withdrawal, sham (AWS), one day post-withdrawal): significantly less center time compared to other shams
center time ([1]; sham groups (AWS, TWS, VS), seven days post-withdrawal): all sham animals spent equivalent center time
center time ([1]; tapered withdrawal, lesion (TWL), one and seven days post-withdrawal): increased center time over AWL animals
center time ([1]; tapered withdrawal, sham (TWS), one day post-withdrawal): increased center time at one day compared to VS animals
HSP70 levels (HSP70; all progesterone treatment vs vehicle-treated animals, three weeks post-injury): increased HSP70 compared to vehicle-treated animals
HSP70 levels (HSP70; sham animals (AWS, TWS, VS)): Sham animals did not display any differences between treatment groups
HSP70 levels (HSP70; tapered withdrawal, lesion (TWL) vs VL and AWL, three weeks post-injury): increased in TWL animals
BDNF levels (BDNF; acute withdrawal, lesion (AWL) vs VL, three weeks post-injury): AWL over VL
BDNF levels (BDNF; sham animals (AWS, TWS, VS)): Sham animals did not display any differences between treatment groups
BDNF levels (BDNF; tapered withdrawal, lesion (TWL) vs AWL, three weeks post-injury): increase in BDNF levels for TWL over AWL
post injury cerebral edema (contusion injury): reduces the severity of post injury cerebral edema
